Like-named read-outs stand apart in the source and are kept apart here.
Assays:
[1] = system: Enterococcus; test: Example 6 infected decubitus ulcer of a patient; type: in vivo, human; settings: five days of antibiotic before the composition
Excerpt: Both swabs were sent to the lab and a count of colony-forming units (CFUs) was ordered.

[2] = system: MRSA; settings: human, in vivo; cited from earlier work
[3] = system: ATCC 29213 (MSSA) and ATCC 43330 (MRSA)
Procedure: Testing was conducted at a pathology laboratory certified for microbiology testing by a physician and a microbiologist. A double blind, randomized controlled experiment was conducted to evaluate the SBDS surfactant against bacteria in Petri dishes.
(§1) Bacterial strain: Two well characterized strains of methicillin-sensitive Staphylococcus aureus (MSSA) and methicillin-resistant Staphylococcus aureus (MRSA) were used. Specifically, experiments used ATCC 29213 (MSSA) and ATCC 43330 (MRSA), both beta-lactamase positive strains, which represent greater than 90% of the respective strains in the American population.
(§2) Petri dish preparation: A sterile cotton swab (American Scientific Products, McGraw Park, Ill.) was dipped into the cultures and used to swab the entire surface of 150×15 mm Petri dishes containing 75 ml of standard Mueller-Hinton agar. Two Petri dishes were inoculated with ATCC 29213 (MSSA and two Petri dishes with ATCC 43330 (MRSA). One Petri dish of each group (MSSA and MRSA) was set aside as the controls. The other two Petri dishes (MSSA and MRSA) were divided up in quadrants, and each quadrant was labeled B, C, D or E.
To evaluate a wider range of surfactant concentrations, cleanser compositions were prepared as follows: A surfactant solution and a stock solution were mixed in various ratios to produce four skin cleanser solutions having four different surfactant concentrations of […], weight-to-weight. The amount of other ingredients in each of the four skin cleanser solutions was less than 1% concentration weight-to-weight.
Cleanser Testing: Four samples of the cleanser with the four different concentrations of the surfactant […] were placed into four separate, unmarked bottles. Each bottle was randomly labeled (B, C, D, or E), and the microbiologist conducting the study was unaware of any difference between the solutions.
(§3) Application: Holding each bottle vertically, the microbiologist added a single drop from each bottle (B, C, D, or E) to the corresponding quadrant of the labeled Petri dish. All four Petri dishes were placed in an incubator overnight at 37 degrees Celsius, and examined 20 hours later. Petri dishes were compared to the corresponding controls, and zones of inhibition were characterized by the largest point of diameter of the circle or oval.

[4] = system: MRSA strains; settings: averaged over three repeated experiments
Excerpt: as §1, §2, §3

[5] = system: mycobacteria marinum; test: Example 7 finger infection of a patient; type: in vivo, human; settings: eleven days of antibiotics before the composition
Procedure: Action against Mycobacteria: A person with four-month long history of an infection on the posterior aspect of their right ring finger was treated. […] After failing two full courses of oral antibiotics, over the previous four months, the patient was given a third round of antibiotics, this time Clarythromycin, after their finger's condition had worsened.

Compound: O=C(O)c1cn(C2CC2)c2cc(N3CCNCC3)c(F)cc2c1=O [ciprofloxacin]
- course of ulcer on antibiotic [1]: showed signs of worsening

Compound: CN[C@H](CC(C)C)C(=O)N[C@H]1C(=O)N[C@@H](CC(N)=O)C(=O)N[C@H]2C(=O)N[C@H]3C(=O)N[C@H](C(=O)N[C@H](C(=O)O)c4cc(O)cc(O)c4-c4cc3ccc4O)[C@H](O)c3ccc(c(Cl)c3)Oc3cc2cc(c3O[C@@H]2O[C@H](CO)[C@@H](O)[C@H](O)[C@H]2O[C@H]2C[C@](C)(N)[C@H](O)[C@H](C)O2)Oc2ccc(cc2Cl)[C@H]1O [Vancomycin]
- share of MRSA patients for whom usually effective [2]: about 40%

Compound: Sodium Dodecylbenzene Sulfonate [surfactant]
- difference from controls ([3]; surfactant concentration 0.5%, single drop, 20 hours, 37 degrees Celsius): no difference between the controls
- inhibition of colony forming units (CFUs) ([3]; surfactant concentration 1%): approximately 50%
- inhibition of colony forming units (CFUs) ([3]; surfactant concentration 2%): approximately 50%
- diameter of circle of clear inhibition ([3]; surfactant concentration 8%): approximately 40 mm
- Diameter of Zone of Inhibition (mm) ([4]; Surfactant conc. 1.00% (vol. %)): No Change
- Diameter of Zone of Inhibition (mm) ([4]; Surfactant conc. 2.30% (vol. %)): 35.3 mm
- Diameter of Zone of Inhibition (mm) ([4]; Surfactant conc. 2.50% (vol. %)): 33.7 mm
- Diameter of Zone of Inhibition (mm) ([4]; Surfactant conc. 2.80% (vol. %)): 32.7 mm
- Diameter of Zone of Inhibition (mm) ([4]; Surfactant conc. 3.30% (vol. %)): 37.3 mm
- Diameter of Zone of Inhibition (mm) ([4]; Surfactant conc. 4.00% (vol. %)): 39.3 mm
- Diameter of Zone of Inhibition (mm) ([4]; Surfactant conc. 4.90% (vol. %)): 41.7 mm
- Diameter of Zone of Inhibition (mm) ([4]; Surfactant conc. 6.50% (vol. %)): 39 mm
- Diameter of Zone of Inhibition (mm) ([4]; Surfactant conc. 9.30% (vol. %)): 34 mm
- Diameter of Zone of Inhibition (mm) ([4]; Surfactant conc. 14.80% (vol. %)): 42.3 mm

Compound: CC[C@H]1OC(=O)[C@H](C)[C@@H](O[C@H]2C[C@@](C)(OC)[C@@H](O)[C@H](C)O2)[C@H](C)[C@@H](O[C@@H]2O[C@H](C)C[C@H](N(C)C)[C@H]2O)[C@](C)(OC)C[C@@H](C)C(=O)[C@H](C)[C@@H](O)[C@]1(C)O [Clarythromycin]
- change in symptoms on antibiotic [5]: no change in symptoms

— US10894032B2, “Microbial-relief composition” (Curazene, LLC, priority 2014, dated 2021)
